This is an account of results in patent publication US8022205B2, “Pyrimidine derivatives as PI3K inhibitor and use thereof” (Chugai Seiyaku Kabushiki Kaisha, priority 2006, dated 2011).

The test system of assay [1] is human lung cancer cell line NCI-H460. Put plainly: Cell proliferation inhibitory activity (Cell Counting Kit-8), lung cancer NCI-H460. Format: cell-based. As to conditions: 96 h, NCI-H460, 4 days, read-out: Cell proliferation inhibitory activity (% Inhibition at 2.5 μM) Non-small cell lung cancer (NCI-H460). As to the method:
(§1) The cell proliferation inhibitory activity was measured for compounds of the present invention represented by formula (I). Cancer cell proliferation inhibitory activity was measured using the Cell Counting Kit-8 (Dojindo). 2000 cells each of human colon cancer cell line HCT116 purchased from the American Type Culture Collection (Virginia, USA) were seeded into each well of a 96-well culture plate followed by the addition of a predetermined concentration of the compounds and cultivating in a CO2environment for 4 days at 37° C. On the fourth day of cultivating, the Cell Counting Kit-8 solution was added and absorbance (measuring wavelength: 450 nm, reference wavelength: 615 nm) was measured in accordance with the protocol provided with the kit.
(§2) Cancer cell proliferation inhibitory activity was also measured for human lung cancer cell line NCI-H460 and human prostate cancer cell line PC3 purchased from the American Type Culture Collection. 1000 and 3000 cells of NCI-H460 and PC3, respectively, were seeded into each well of a 96-well culture plate followed by testing in the same manner as the human colon cancer cell line and calculating the percentage of cell proliferation inhibition at 2.5 μM.
Background: Formazan colour is commonly taken as a measure of viable cells.

The target of a further assay is human PI3K(p110α/p85α) (Homo sapiens, UniProt P42336). The assay is described as follows: Measurement of PI3K inhibitory activity (AlphaScreen GST Detection Kit). It is filed as biochemical. As to conditions: 10 μM ATP, 4 μM PI(4,5)P2, read-out: Enzyme inhibitory activity (IC50, μM) PI3K α. Here is the method: The inhibitory activity of compounds of the present invention represented by formula (I) were measured with human PI3K(p110α/p85α) prepared in a baculovirus expression system using the AlphaScreen GST Detection Kit (Perkin Elmer, Inc.). A predetermined concentration of the compound dissolved in dimethylsulfoxide (DMSO) and PI3K were mixed in a 384-well assay plate and after allowing to stand for 20 minutes at room temperature, 4 μM PI(4,5)P2 (Echelon Corporation) and 10 μM ATP (5 mM Hepes, pH 7.5, 2.5 mM MgCl2) were added to initiate the reaction. After reacting for 15 minutes at 37° C., GST-GRP1 expressed and purified from Escherichia coli, Anti-GST Acceptor Beads (Perkin Elmer, Inc.), Streptavidin Donor Beads (Perkin Elmer, Inc.) and biotin-PI(3,4,5) P3 (Echelon Corporation) (10 mM Tris-HCl pH 7.4, 150 mM NaCl, 7.5 mM EDTA, 1 mM DTT, 0.1% Tween 20) were added, and after allowing to stand for 1 hour at room temperature, light at 520 to 620 nm emitted as a result of exciting with light at 680 nm was measured with the Envision measuring instrument (Perkin Elmer, Inc.).
human PI3K(p110α/p85α), sequence (P42336 whole entry): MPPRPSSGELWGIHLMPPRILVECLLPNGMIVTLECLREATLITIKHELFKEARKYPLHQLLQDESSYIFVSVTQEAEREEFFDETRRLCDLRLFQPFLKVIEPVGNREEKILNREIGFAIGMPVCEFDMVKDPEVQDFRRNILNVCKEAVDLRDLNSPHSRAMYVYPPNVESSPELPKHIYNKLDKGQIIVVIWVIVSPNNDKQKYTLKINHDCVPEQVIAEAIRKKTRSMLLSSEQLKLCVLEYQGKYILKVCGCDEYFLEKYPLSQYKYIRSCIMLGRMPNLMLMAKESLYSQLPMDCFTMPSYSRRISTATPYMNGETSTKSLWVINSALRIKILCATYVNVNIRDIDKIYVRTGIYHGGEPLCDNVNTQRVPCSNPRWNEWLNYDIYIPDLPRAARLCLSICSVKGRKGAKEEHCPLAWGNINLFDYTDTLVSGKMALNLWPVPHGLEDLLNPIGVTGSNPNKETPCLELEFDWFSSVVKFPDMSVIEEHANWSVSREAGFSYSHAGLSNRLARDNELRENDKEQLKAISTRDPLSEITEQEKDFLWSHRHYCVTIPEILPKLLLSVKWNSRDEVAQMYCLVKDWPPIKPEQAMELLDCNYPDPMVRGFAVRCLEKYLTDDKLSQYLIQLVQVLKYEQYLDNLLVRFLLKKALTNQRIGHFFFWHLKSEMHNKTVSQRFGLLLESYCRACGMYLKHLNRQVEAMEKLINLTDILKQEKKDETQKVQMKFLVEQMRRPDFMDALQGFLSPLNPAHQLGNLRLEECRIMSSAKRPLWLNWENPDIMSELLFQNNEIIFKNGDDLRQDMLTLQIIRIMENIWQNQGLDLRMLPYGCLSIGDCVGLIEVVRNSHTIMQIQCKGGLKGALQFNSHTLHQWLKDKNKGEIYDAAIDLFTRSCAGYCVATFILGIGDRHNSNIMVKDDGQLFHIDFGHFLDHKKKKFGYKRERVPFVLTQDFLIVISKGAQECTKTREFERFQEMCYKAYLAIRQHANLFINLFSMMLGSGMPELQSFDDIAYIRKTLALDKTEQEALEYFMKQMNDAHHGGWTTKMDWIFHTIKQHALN
human PI3K(p110α/p85α), sequence (P27986 whole entry partner): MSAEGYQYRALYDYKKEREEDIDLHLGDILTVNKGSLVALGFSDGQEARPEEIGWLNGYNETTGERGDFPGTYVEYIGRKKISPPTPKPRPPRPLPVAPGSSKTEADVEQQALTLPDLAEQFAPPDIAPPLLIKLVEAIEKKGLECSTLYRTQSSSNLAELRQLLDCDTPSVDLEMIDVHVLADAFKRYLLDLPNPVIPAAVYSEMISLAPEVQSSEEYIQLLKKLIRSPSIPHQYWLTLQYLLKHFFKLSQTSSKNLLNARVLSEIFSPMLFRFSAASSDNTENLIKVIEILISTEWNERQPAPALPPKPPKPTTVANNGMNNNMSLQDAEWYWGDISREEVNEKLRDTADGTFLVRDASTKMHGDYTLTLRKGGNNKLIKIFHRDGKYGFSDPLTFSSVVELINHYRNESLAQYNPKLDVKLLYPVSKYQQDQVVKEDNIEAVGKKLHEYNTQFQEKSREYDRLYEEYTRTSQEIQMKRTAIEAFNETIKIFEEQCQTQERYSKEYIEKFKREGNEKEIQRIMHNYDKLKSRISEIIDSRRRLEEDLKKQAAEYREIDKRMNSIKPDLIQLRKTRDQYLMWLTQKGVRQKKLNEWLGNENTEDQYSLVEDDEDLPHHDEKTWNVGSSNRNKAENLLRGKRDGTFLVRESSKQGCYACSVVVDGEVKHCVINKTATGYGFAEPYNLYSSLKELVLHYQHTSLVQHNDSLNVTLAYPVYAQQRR
Test Example 1 described above can be performed according to “Analytical Biochemistry, 2003, 313, 234-245; Alexander Gray et al”.
(Bead proximity is the source of the signal in Alpha formats.)

Assay [2] deals with human colon cancer cell line HCT116. The assay is described as follows: Cell proliferation inhibitory activity (Cell Counting Kit-8), colon cancer HCT116. Format: cell-based. Conditions: HCT-116, 96 h, HCT116, 4 days. As to the method:
as §1

For assay [3], the system named is human prostate cancer cell line PC3. The assay is described as follows: Cell proliferation inhibitory activity (Cell Counting Kit-8), prostate cancer PC3. Conditions: 96 h, PC3, 4 days. It is filed as cell-based. Here is the method: as §1, §2

With `Nc1ncc(-c2nc(N3CCOCC3)nc3c2CCN3c2cc(C(=O)N3CCOCC3)ccc2F)cn1` [Example D-16, {3-[4-(2-Amino-pyrimidin-5-yl)-2-morpholin-4-yl-5,6-dihydro-pyrrolo[2,3-d]pyrimidin-7-yl]-4-fluoro-phenyl}-morpholin-4-yl-methanone], the values for the inhibition at 2.5 µM in assay [1], in assay [2] and in assay [3] were 76%, 74% and 73%, respectively. The IC50 at human PI3K(p110α/p85α) stood at 0.23 µM.

In the case of `CCN1CCN(C(=O)c2ccc(C)c(NC(=S)N3CCc4c(-c5cnc(N)nc5)nc(N5CCOCC5)nc43)c2)CC1` [Example D-17, 4-(2-Amino-pyrimidin-5-yl)-2-morpholin-4-yl-5,6-dihydro-pyrrolo[2,3-d]pyrimidine-7-carbothioic acid [5-(4-ethyl-piperazine-1-carbonyl)-2-methyl-phenyl]-amide], the inhibition at 2.5 µM in assay [1] was found to be 97%; in assay [2], 96%; in assay [3] it was 93%. Also, the IC50 at human PI3K(p110α/p85α) came to 0.024 µM.

`CCN1CCN(c2cc(F)c(NC(=O)N3CCc4c(-c5cnc(N)nc5)nc(N5CCOCC5)nc43)c(F)c2)CC1` [Example D-18, 4-(2-Amino-pyrimidin-5-yl)-2-morpholin-4-yl-5,6-dihydro-pyrrolo[2,3-d]pyrimidine-7-carboxylic acid [4-(4-ethyl-piperazin-1-yl)-2,6-difluoro-phenyl]-amide]: the inhibition at 2.5 µM in assay [1] was determined as 102%; in assay [2], 100%; in assay [3], 93%. Besides, the IC50 at human PI3K(p110α/p85α) stood at 0.022 µM.

Regarding `Nc1ncc(-c2nc(N3CCOCC3)nc3c2CCN3c2ccc(C(=O)NCc3cccnc3)cc2)cn1` [Example D-19, 4-[4-(2-Amino-pyrimidin-5-yl)-2-morpholin-4-yl-5,6-dihydro-pyrrolo[2,3-d]pyrimidin-7-yl]-N-pyridin-3-ylmethyl-benzamide], the inhibition at 2.5 µM worked out at 97% in assay [1], 73% in assay [2] and 102% in assay [3]. Moreover, the IC50 on human PI3K(p110α/p85α) turned out to be 0.06 µM.

Consider `Nc1ncc(-c2nc(N3CCOCC3)nc3c2CCN3c2ccc(C(=O)N3CCN(c4cccnc4)CC3)cc2)cn1` [Example D-20, {4-[4-(2-Amino-pyrimidin-5-yl)-2-morpholin-4-yl-5,6-dihydro-pyrrolo[2,3-d]pyrimidin-7-yl]-phenyl}-(4-pyridin-3-yl-piperazin-1-yl)-methanone], for which the results for the inhibition at 2.5 µM in assay [1], in assay [2] and in assay [3] were 99%, 83% and 99%, respectively. Besides, on human PI3K(p110α/p85α), the IC50 was determined as 0.046 µM.

With `Nc1ncc(-c2nc(N3CCOCC3)nc3c2CCN3c2ccc(C(=O)N3CCN(c4cccnc4)CC3)cc2F)cn1` [Example D-21, {4-[4-(2-Amino-pyrimidin-5-yl)-2-morpholin-4-yl-5,6-dihydro-pyrrolo[2,3-d]pyrimidin-7-yl]-3-fluoro-phenyl}-(4-pyridin-3-yl-piperazin-1-yl)-methanone], the inhibition at 2.5 µM came to 79% in assay [1], 77% in assay [2] and 100% in assay [3]. For the same molecule, on human PI3K(p110α/p85α), the IC50 was 0.01 µM.

`Nc1ncc(-c2nc(N3CCOCC3)nc3c2CCN3c2ccc(C(=O)N3CCOCC3)cc2F)cn1` [Example D-22, {4-[4-(2-Amino-pyrimidin-5-yl)-2-morpholin-4-yl-5,6-dihydro-pyrrolo[2,3-d]pyrimidin-7-yl]-3-fluoro-phenyl}-morpholin-4-yl-methanone]: the inhibition at 2.5 µM in assay [1] was 83%; in assay [2], 82%; in assay [3], 79%. Besides, the IC50 on human PI3K(p110α/p85α) was 0.042 µM.

As to `CN1CCN(c2cc(F)c(NC(=O)N3CCc4c(-c5cnc(N)nc5)nc(N5CCOCC5)nc43)c(F)c2)CC1` [Example D-23, 4-(2-Amino-pyrimidin-5-yl)-2-morpholin-4-yl-5,6-dihydro-pyrrolo[2,3-d]pyrimidine-7-carboxylic acid [4-(4-methyl-piperazin-1-yl)-2,6-difluoro-phenyl]-amide], the inhibition at 2.5 µM in assay [1] stood at 100%; in assay [2], 99%; in assay [3], 89%. Also, the IC50 on human PI3K(p110α/p85α) was found to be 0.006 µM.

Regarding `CCN1CCN(C(=O)c2cc(F)c(NC(=O)N3CCc4c(-c5cnc(N)nc5)nc(N5CCOCC5)nc43)c(F)c2)CC1` [Example D-24, 4-(2-Amino-pyrimidin-5-yl)-2-morpholin-4-yl-5,6-dihydro-pyrrolo[2,3-d]pyrimidine-7-carboxylic acid [4-(4-ethyl-piperazine-1-carbonyl)-2,6-difluoro-phenyl]-amide], the values for the inhibition at 2.5 µM in assay [1], in assay [2] and in assay [3] were 94%, 88% and 91%, respectively. Besides, the IC50 on human PI3K(p110α/p85α) worked out at 0.034 µM.

As for `Cc1ccc(C(=O)N2CCOCC2)cc1N1CCc2c(-c3cnc(N)nc3)nc(N3CCOCC3)nc21` [Example D-25, {3-[4-(2-Amino-pyrimidin-5-yl)-2-morpholin-4-yl-5,6-dihydro-pyrrolo[2,3-d]pyrimidin-7-yl]-4-methyl-phenyl}-morpholin-4-yl-methanone], the inhibition at 2.5 µM in assay [1] was 57%; in assay [2], 61%; in assay [3], 55%. For the same molecule, at human PI3K(p110α/p85α), the IC50 came to 0.22 µM.

In the case of `CN1CCN(Cc2ccc(N3CCc4c(-c5cnc(N)nc5)nc(N5CCOCC5)nc43)cc2)CC1` [Example D-26, 5-{7-[4-(4-methyl-piperazin-1-ylmethyl)-phenyl]-2-morpholin-4-yl-6,7-dihydro-5H-pyrrolo[2,3-d]pyrimidin-4-yl}-pyrimidin-2-ylamine], the figures for the inhibition at 2.5 µM in assay [1], in assay [2] and in assay [3] were 84%, 87% and 82%, respectively. The IC50 on human PI3K(p110α/p85α) is 0.048 µM.

Consider `CN1CCN(C(=O)c2ccc(N3CCc4c(-c5cnc(N)nc5)nc(N5CCOCC5)nc43)cc2)CC1` [Example D-42, {4-[4-(2-Amino-pyrimidin-5-yl)-2-morpholin-4-yl-5,6-dihydro-pyrrolo[2,3-d]pyrimidin-7-yl]-phenyl}-(4-methyl-piperazin-1-yl)-methanone], for which the inhibition at 2.5 µM stood at 94% in assay [1], 91% in assay [2] and 88% in assay [3]. Besides, at human PI3K(p110α/p85α), the IC50 worked out at 0.014 µM.

Turning to `CCN1CCN(C(=O)c2ccc(N3CCc4c(-c5cnc(N)nc5)nc(N5CCOCC5)nc43)cn2)CC1` [Example D-95, {5-[4-(2-Amino-pyrimidin-5-yl)-2-morpholin-4-yl-5,6-dihydro-pyrrolo[2,3-d]pyrimidin-7-yl]-pyridin-2-yl}-(4-ethyl-piperazin-1-yl)-methanone], the inhibition at 2.5 µM in assay [1] is 83%; in assay [2], 93%; in assay [3] it was 91%. Besides, the 50% inhibitory concentration (IC50) at human PI3K(p110α/p85α) turned out to be 0.007 µM.

Turning to `CCN1CCN(C(=O)c2cccc(NC(=O)N3CCc4c(-c5cnc(N)nc5)nc(N5CCOCC5)nc43)c2)CC1` [Example D-101, 4-(2-Amino-pyrimidin-5-yl)-2-morpholin-4-yl-5,6-dihydro-pyrrolo[2,3-d]pyrimidine-7-carboxylic acid [3-(4-ethyl-piperazine-1-carbonyl)-phenyl]-amide], the figures for the inhibition at 2.5 µM in assay [1], in assay [2] and in assay [3] were 67%, 92% and 89%, respectively. Besides, the IC50 on human PI3K(p110α/p85α) is 0.009 µM.

Regarding `Nc1ncc(-c2nc(N3CCOCC3)nc3c2CCN3C(=O)Nc2cccc(C(=O)N3CCOCC3)c2)cn1` [Example D-102, 4-(2-Amino-pyrimidin-5-yl)-2-morpholin-4-yl-5,6-dihydro-pyrrolo[2,3-d]pyrimidine-7-carboxylic acid [3-(morpholine-4-carbonyl)-phenyl]-amide], the inhibition at 2.5 µM in assay [1] was determined as 94%; in assay [2] it was 72%; in assay [3], 70%. Further, the IC50 at human PI3K(p110α/p85α) was determined as 0.007 µM.

As to `CCN1CCN(C(=O)c2ccc(NC(=O)N3CCc4c(-c5cnc(N)nc5)nc(N5CCOCC5)nc43)cc2)CC1` [Example D-103, 4-(2-Amino-pyrimidin-5-yl)-2-morpholin-4-yl-5,6-dihydro-pyrrolo[2,3-d]pyrimidine-7-carboxylic acid [4-(4-ethyl-piperazine-1-carbonyl)-phenyl]-amide], the inhibition at 2.5 µM in assay [1] was 92%; in assay [2], 74%; in assay [3], 80%. The IC50 on human PI3K(p110α/p85α) came to 0.006 µM.

Usually IC50 stands for the concentration that gives 50% inhibition.
